Measurements reported in patent publication US7629346B2, “Pyrazinecarboxamide derivatives as CB1 antagonists” (Hoffmann-La Roche Inc., priority 2006, dated 2009).
Like-named read-outs stand apart in the source and are kept apart here. One block for each compound: values may come before it.

Assays:
[1] = molecular target: T1, human cannabis CB1 receptor (Homo sapiens, UniProt P21554); experiment: Affinity for cannabinoid CB1 receptors, [3H]-CP-55,940 radioligand binding on HEK cell membranes
T1 construct: expressed in transfected cells; host or cells: human embryonic kidney (HEK) cells, Semliki Forest Virus system, membrane preparation
T1 sequence (P21554 whole entry): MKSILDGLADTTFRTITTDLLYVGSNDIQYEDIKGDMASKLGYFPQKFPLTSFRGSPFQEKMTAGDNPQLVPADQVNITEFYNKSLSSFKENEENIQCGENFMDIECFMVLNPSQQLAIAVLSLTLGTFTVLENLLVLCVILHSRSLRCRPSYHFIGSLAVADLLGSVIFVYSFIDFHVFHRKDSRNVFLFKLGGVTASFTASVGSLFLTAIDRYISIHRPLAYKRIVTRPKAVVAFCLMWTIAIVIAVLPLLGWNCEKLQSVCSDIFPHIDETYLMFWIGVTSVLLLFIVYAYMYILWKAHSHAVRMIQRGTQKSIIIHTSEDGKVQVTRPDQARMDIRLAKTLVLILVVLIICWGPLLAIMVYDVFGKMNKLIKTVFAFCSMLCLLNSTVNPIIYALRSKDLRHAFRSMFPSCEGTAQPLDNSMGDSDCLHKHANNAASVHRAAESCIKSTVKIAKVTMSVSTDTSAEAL
Method: The affinity of the compounds of the invention for cannabinoid CB1 receptors was determined using membrane preparations of human embryonic kidney (HEK) cells in which the human cannabis CB1 receptor is transiently transfected using the Semliki Forest Virus system in conjunction with [3H]-CP-55,940 as radioligand. After incubation of a freshly prepared cell membrane preparation with the [3H]-ligand, with or without addition of compounds of the invention, separation of bound and free ligand was performed by filtration over glassfiber filters. Radioactivity on the filter was measured by liquid scintillation counting.
The compounds of formula (I) show an excellent affinity for the CB1 receptor, determined with the experimental conditions described in Devane et. al. Mol. Pharmacol. 34 (1988) 605-613.

[2] = wild-type versus CB1 knockout mice; cited from earlier work
[3] = several phase III studies; cited from earlier work
[4] = 10 and 20 mg daily; cited from earlier work
[5] = phase III trial STRATUS-US; cited from earlier work
[6] = [3H]-CP-55,940 as radioligand, membranes of HEK cells transfected with human CB1 receptor, read-out: Ki

- Ki [1, 6]: 35.4 nM
SMILES: CN(c1ncc(C(=O)N[C@@H]2CCCC[C@H]2O)nc1-c1ccc(OC(F)(F)F)cc1)C1CC1 [Example 21, 5-(Cyclopropyl-methyl-amino)-6-(4-trifluoromethoxy-phenyl)-pyrazine-2-carboxylic acid ((1R,2R)-2-hydroxy-cyclohexyl)-amide]

SMILES: COCCOc1ncc(C(=O)NC[C@](C)(O)C2CC2)nc1-c1ccc(Cl)cc1 [Example 27, 6-(4-Chloro-phenyl)-5-(2-methoxy-ethoxy)-pyrazine-2-carboxylic acid ((R)-2-cyclopropyl-2-hydroxy-propyl)-amide]
- Ki [1]: 47.5 nM

- Ki [1, 6]: 12.2 nM
SMILES: C[C@](O)(CNC(=O)c1cnc(OCc2ncccn2)c(-c2ccc(F)cc2)n1)C1CC1 [Example 69, 6-(4-Fluoro-phenyl)-5-(pyrimidin-2-ylmethoxy)-pyrazine-2-carboxylic acid ((R)-2-cyclopropyl-2-hydroxy-propyl)-amide]

SMILES: Cc1c(C(=O)NN2CCCCC2)nn(-c2ccc(Cl)cc2Cl)c1-c1ccc(Cl)cc1 [SR 141716, Rimonabant]
- food intake [2]: reduces food intake in wild-type but not knockout mice
- body weight, waist circumference and metabolic parameters (plasma HDL, triglycerides and insulin sensitivity) [3]: reduced body weight, waist circumference and improved metabolic parameters
- body weight compared to placebo [4]: significantly reduced body weight
- efficacy for smoking cessation [5]: has shown efficacy
